Assay results taken from patent US20240252581A1, “COMPOSITIONS AND METHODS FOR TREATING RESPIRATORY DISTRESS” (S.I.S. SHULOV INNOVATIVE SCIENCE LTD., priority 2021, published 2024).
Values joined by “and” are separate entries in the source; they are usually repeats but may differ in a detail not shown here. Equal values may be shown once. Square brackets hold non-standard residues; d marks the D form. Peptide text beside a SMILES is read from it. * marks the point of attachment. pGlu = O=C1CC[C@@H](C(=O)O)N1; Octanoyl = CCCCCCCC(=O)*

Tested on: inflammatory cytokines in BALF
Test: LPS-induced acute lung injury / ARDS mouse model: BALF cytokine concentrations (multiplex ELISA)
Type: in vivo, BALB/c mice
Conditions: BALF
Method: In order to test the efficacy of ZEP3 sodium on lung inflammation, the lipopolysaccharide (LPS)-induced acute lung injury model was used. In particular, LPS was administered intratracheally at doses of 10 or 40 mg/kg body weight (BW) corresponding to 0.2 or 0.8 mg/mouse, respectively.
ZEP3 sodium was administered by inhalation (INH) at doses of 25 or 250 mg/kg BW (0.5 or 5 mg/mouse, respectively), or intratracheally (IT) at doses of 5 or 20 mg/kg BW (0.1 or 0.4 mg/mouse, respectively) 6 hours after LPS administration and its effect was measured 72 hours following administration in the branchial alveolar fluid (BALF) using FACS instrumentation.
To detect cytokine release in lungs fluid, cytokine concentrations were assessed in BALF samples using high sensitivity multiplex ELISA assays for: IFN-γ, IL-1α, IL-5, IL-6, IL-10, IL-12 (p70), IL-17A, KC, MCP-1, TNF-α, IP-10, RANTES, G-CSF, MIP-1α and RANTES. ZEP3Na administered intratracheally at 0.1 and 0.4 mg per mouse after instillation of 0.2 mg LPS inhibited the concentration of following interleukins: IL-1α, IL-6, IL-10, IL-12, IL-17, KC, MCP-1, TNF-α and G-CSF.

[1] = Group 2: ZEP3Na 0.1 mg IT, no LPS, group mean
[2] = Group 2: ZEP3Na 0.1 mg IT, no LPS, individual mice
[3] = Group 3: ZEP3Na 0.4 mg IT, no LPS, group mean
[4] = Group 3: ZEP3Na 0.4 mg IT, no LPS, individual mice
[5] = Group 4: LPS 0.8 mg + ZEP3Na 0.1 mg IT, group mean
[6] = Group 4: LPS 0.8 mg + ZEP3Na 0.1 mg IT, individual mice
[7] = Group 5: LPS 0.8 mg + ZEP3Na 0.4 mg IT, group mean
[8] = Group 5: LPS 0.8 mg + ZEP3Na 0.4 mg IT, individual mice
[9] = Group 8: LPS 0.2 mg + ZEP3Na 0.1 mg IT, group mean
[10] = Group 8: LPS 0.2 mg + ZEP3Na 0.1 mg IT, individual mice
[11] = Group 9: LPS 0.2 mg + ZEP3Na 0.4 mg IT, group mean

CCCCCCCC(=O)NCCCC[C@H](NC(=O)[C@H](Cc1c[nH]c2ccccc12)NC(=O)[C@H](CC(N)=O)NC(=O)[C@@H]1CCC(=O)N1)C(=O)O [ZEP3Na, pGlu-Asn-Trp-Lys(Octanoyl)-ONa] ([pGlu]NWK(Octanoyl)-OH)
production of IL-12 and TNF-α (0.8 mg LPS treated mice, 0.1 and 0.4 mg): significantly inhibited
G-CSF [1]: 2.60 pg/mL
IL-12 (p70) [1]: 7.31 pg/mL
IL-17A [1]: 0.35 pg/mL
KC [1]: 59.28 pg/mL
MCP-1 [1]: 0.00 pg/mL
G-CSF [2]: 2.37 pg/ml (2×) and 1.99 pg/ml (2×) and 5.06 pg/ml and 2.76 pg/ml (2×) and 3.53 pg/ml and 3.15 pg/ml
G-CSF (pg/ml) [2]: undetected
IL-12 (p70) [2]: 9.22 pg/ml (2×) and 9.10 pg/ml and 8.79 pg/ml (2×) and 7.39 pg/ml and 5.38 pg/ml and 4.32 pg/ml and 10.92 pg/ml
IL-12 (p70) (pg/ml) [2]: undetected
IL-17A [2]: 0.63 pg/mL and 2.12 pg/mL and 0.73 pg/mL
IL-17A (pg/ml) [2]: undetected
KC [2]: 46.08 pg/mL and 58.58 pg/mL and 58.91 pg/mL and 89.58 pg/mL and 95.87 pg/mL and 47.76 pg/mL and 43.47 pg/mL and 64.27 pg/mL and 42.44 pg/mL and 45.89 pg/mL
MCP-1 (pg/ml) [2]: undetected
G-CSF [3]: 3.26 pg/mL
IL-12 (p70) [3]: 7.54 pg/mL
IL-17A [3]: 1.26 pg/mL
KC [3]: 70.95 pg/mL
MCP-1 [3]: 4.89 pg/mL
G-CSF [4]: 7.65 pg/ml and 3.47 pg/ml (2×) and 2.20 pg/ml (2×) and 6.40 pg/ml and 3.89 pg/ml
G-CSF (pg/ml) [4]: undetected
IL-12 (p70) [4]: 8.49 pg/ml (2×) and 7.27 pg/ml and 7.92 pg/ml and 5.27 pg/ml and 9.45 pg/ml and 7.21 pg/ml and 5.22 pg/ml and 8.54 pg/ml
IL-17A [4]: 2.02 pg/ml and 1.13 pg/ml and 1.36 pg/ml and 1.47 pg/ml and 1.20 pg/ml (2×) and 1.06 pg/ml and 0.73 pg/ml and 1.14 pg/ml
KC [4]: 56.01 pg/mL and 58.30 pg/mL and 63.33 pg/mL and 62.30 pg/mL and 71.12 pg/mL and 68.10 pg/mL and 52.39 pg/mL and 46.36 pg/mL and 160.65 pg/mL
MCP-1 [4]: 11.53 pg/ml and 11.29 pg/ml (2×) and 9.93 pg/ml
MCP-1 (pg/ml) [4]: undetected
G-CSF [5]: 138.16 pg/mL
IL-12 (p70) [5]: 124.09 pg/mL
IL-17A [5]: 837.99 pg/mL
KC [5]: 466.06 pg/mL
MCP-1 [5]: 70.18 pg/mL
G-CSF [6]: 250.42 pg/mL and 141.30 pg/mL and 164.43 pg/mL and 89.05 pg/mL and 416.35 pg/mL and 50.11 pg/mL and 131.80 pg/mL
G-CSF (pg/ml) [6]: undetected
IL-12 (p70) [6]: 6.33 pg/mL and 5.38 pg/mL and 235.43 pg/mL and 103.27 pg/mL and 192.86 pg/mL and 41.94 pg/mL and 414.83 pg/mL and 27.99 pg/mL and 88.80 pg/mL
IL-17A [6]: 1287.47 pg/mL and 55.37 pg/mL and 719.90 pg/mL and 51.28 pg/mL and 5285.06 pg/mL and 77.04 pg/mL and 65.83 pg/mL
IL-17A (pg/ml) [6]: undetected
KC [6]: 39.18 pg/mL and 29.08 pg/mL and 847.35 pg/mL and 522.41 pg/mL and 798.01 pg/mL and 253.77 pg/mL and 831.88 pg/mL and 234.34 pg/mL and 638.49 pg/mL
MCP-1 [6]: 70.21 pg/mL and 76.09 pg/mL and 93.90 pg/mL and 58.01 pg/mL and 114.01 pg/mL and 53.91 pg/mL and 165.51 pg/mL
MCP-1 (pg/ml) [6]: undetected
G-CSF [7]: 190.32 pg/mL
IL-12 (p70) [7]: 102.59 pg/mL
IL-17A [7]: 204.85 pg/mL
KC [7]: 773.23 pg/mL
MCP-1 [7]: 190.69 pg/mL
G-CSF [8]: 491.06 pg/mL and 209.62 pg/mL and 268.52 pg/mL and 300.90 pg/mL and 7.65 pg/mL and 3.47 pg/mL and 124.37 pg/mL and 116.99 pg/mL
IL-12 (p70) [8]: 7.58 pg/mL and 215.64 pg/mL and 368.44 pg/mL and 12.63 pg/mL and 7.60 pg/mL and 194.02 pg/mL and 14.83 pg/mL
IL-12 (p70) (pg/ml) [8]: undetected
IL-17A [8]: 7.23 pg/mL and 265.69 pg/mL and 1207.05 pg/mL and 13.05 pg/mL and 2.04 pg/mL and 0.52 pg/mL and 136.95 pg/mL and 6.24 pg/mL
KC [8]: 1115.74 pg/mL and 1099.42 pg/mL and 1195.30 pg/mL and 488.61 pg/mL and 54.20 pg/mL and 57.06 pg/mL and 981.92 pg/mL and 1193.59 pg/mL
MCP-1 [8]: 810.24 pg/mL and 166.84 pg/mL and 79.29 pg/mL and 307.60 pg/mL and 15.45 pg/mL and 83.52 pg/mL and 62.54 pg/mL
MCP-1 (pg/ml) [8]: undetected
G-CSF [9]: 187.95 pg/mL
IL-12 (p70) [9]: 264.97 pg/mL
IL-17A [9]: 724.27 pg/mL
KC [9]: 1023.71 pg/mL
MCP-1 [9]: 133.24 pg/mL
G-CSF [10]: 175.22 pg/mL and 144.90 pg/mL and 109.99 pg/mL and 383.77 pg/mL and 239.49 pg/mL and 199.64 pg/mL and 249.05 pg/mL and 93.60 pg/mL and 177.33 pg/mL and 106.48 pg/mL
IL-12 (p70) [10]: 247.16 pg/mL and 386.37 pg/mL and 66.34 pg/mL and 199.27 pg/mL and 322.18 pg/mL and 422.04 pg/mL and 317.94 pg/mL and 97.45 pg/mL and 202.28 pg/mL and 388.69 pg/mL
IL-17A [10]: 553.70 pg/mL and 1615.14 pg/mL and 285.28 pg/mL and 1776.16 pg/mL and 862.84 pg/mL and 989.92 pg/mL and 458.49 pg/mL and 111.01 pg/mL and 281.41 pg/mL and 308.73 pg/mL
KC [10]: 782.52 pg/mL and 1528.47 pg/mL and 503.00 pg/mL and 672.71 pg/mL and 1548.79 pg/mL and 1057.28 pg/mL and 1346.32 pg/mL and 808.21 pg/mL and 1086.03 pg/mL and 903.77 pg/mL
MCP-1 [10]: 107.46 pg/mL and 158.19 pg/mL and 142.05 pg/mL and 85.01 pg/mL and 91.65 pg/mL and 135.00 pg/mL and 216.90 pg/mL and 114.81 pg/mL and 109.95 pg/mL and 171.38 pg/mL
G-CSF [11]: 172.12 pg/mL
IL-12 (p70) [11]: 161.01 pg/mL
IL-17A [11]: 584.07 pg/mL
